# Experimental data reported in patent publication US10168342B2, “Lipid probes and uses thereof” (THE SCRIPPS RESEARCH INSTITUTE, priority 2015, dated 2019).
# Where two headings read alike, the source gives them in different places.
# What was measured:
# [1] = target: AEA-DA lipid probe targets in Neuro2a cells (Mus musculus, UniProt Q91VM5); details: protein Rbmxl1, Neuro2a cells
# [2] = target: T1, AEA-DA-modified peptides in Neuro2a cells (Mus musculus, UniProt Q02819); experiment: isoTOP-ABPP mapping of AEA-DA-modified peptides in Neuro2a cells; assay type: cell-based; details: for Times observed: probe 100 μM, 12 replicates
# T1 construct: endogenous in cells; host or cells: Neuro2a
# T1 sequence (Q02819 26-459): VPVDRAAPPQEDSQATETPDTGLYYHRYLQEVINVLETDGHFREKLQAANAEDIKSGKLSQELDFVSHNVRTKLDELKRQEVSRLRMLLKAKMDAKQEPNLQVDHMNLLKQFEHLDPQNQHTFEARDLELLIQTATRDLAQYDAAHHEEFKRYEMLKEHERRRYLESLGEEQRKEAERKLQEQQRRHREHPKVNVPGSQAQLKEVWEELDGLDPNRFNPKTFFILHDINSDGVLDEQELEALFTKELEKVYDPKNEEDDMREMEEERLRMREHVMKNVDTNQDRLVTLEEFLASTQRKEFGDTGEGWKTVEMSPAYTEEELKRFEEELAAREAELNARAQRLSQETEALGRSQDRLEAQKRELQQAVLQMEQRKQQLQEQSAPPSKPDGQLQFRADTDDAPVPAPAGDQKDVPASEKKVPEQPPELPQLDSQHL
# Method: Experiments were performed as described above using the AEA-DA probe (100 μM) in 3.0 mL of DMEM (serum-free) and Neuro2A cells without (twelve replicates; ten biological; two technical). For the ligand competition study, cells were treated with the AEA-DA probe (50 μM) and DMSO or MJN228 (50 μM) treatment. Cells were harvested and processed as described above. Whole cell lysates (500 μL at 1.5 mg/mL) were processed for MS analysis using the previously described isoTOPABPP protocol (Speers and Cravatt, 2005). In brief, for global mapping of AEA-DA-modified peptides, proteomes were split into two fractions, which were subjected to click chemistry conditions with either light or heavy isotopically labeled TEV-tags. For the […] competition study, proteomes were subjected to click chemistry conditions with either light (DMSO) or heavy (MJN228-treated) TEV-tags. Light and heavy-tagged proteomes in each experiment were then combined, and, following enrichment of probe-labeled targets using streptavidin beads, proteins were digested on-bead with trypsin and remaining immobilized peptides released with a subsequent TEV protease digestion. The resulting probe-modified peptides were collected for MS analysis, which was performed as described above with differences in the salt bumps applied in the chromatographic gradients which were 0%, 30%, 60%, 90% and 100% NH4OAc (500 mM). The protein identification searches of the MS data were performed using the same software packages described above with the following changes applied to identify the peptides modified with AEA-DA and the cleaved TEV tag. All amino acids were considered as possible residues for modification. To facilitate the computational searches, sets of up to 3 amino acids were searched using ProLuCID and filtered with DTASelect as described above. The mass of the modification used to search for probe-modified peptides was +727.4745 m/z for the probe plus the light TEV-tag and +733.4831 m/z for the heavy counterpart. […] For global mapping experiments, AEA-DA-modified peptides were expected to show a ratio of “heavy” and “light” signals of ˜1.0 (0.5<ratio<2.0) and were required to have been detected in at least two of the twelve replicate experiments.
# In some embodiments, the ligands are tested for their interaction to NUCB1 in cells. […] MJN228 inhibited lipid probe binding to NUCB1 at concentrations as low as 10 μM, with near-maximal inhibition observed at ˜25 μM (FIG. 16A). […] The site of arachidonoyl probe (and MJN228) binding to NUCB1 was mapped in cells, which was accomplished by treating Neuro2A cells with the AEA-DA probe (50 μM) in the presence of DMSO or MJN228 (50 μM), followed by UV irradiation, CuAAC conjugation of AEA-DA-labeled proteins to isotopically light (DMSO-treated cells) and heavy (MJN228-treated cells) azide-biotin tags featuring a TEV protease-cleavable linker, and LCMS/MS analysis using a previously described platform, termed isoTOP-ABPP, for mapping probe-modified peptides in proteomes (Speers and Cravatt, 2005). A AEA-DA labeled peptide was identified for NUCB1 (aa 53-68) in DMSO-treated cells and the signals for this peptide were substantially (>5-fold) reduced in MJN228-treated cells (FIG. 15C). This AEA-DA labeling site was confirmed using recombinant, purified hNUCB1 and tandem MS analysis which narrowed down the site of probe modification to His67 (FIGS. 16B and 16C).
# [3] = target: T2, AEA-DA lipid probe targets in Neuro2a cells (Mus musculus, UniProt Q8VCX5); details: protein Micu1, Neuro2a cells
# T2 sequence (Q8VCX5 34-477): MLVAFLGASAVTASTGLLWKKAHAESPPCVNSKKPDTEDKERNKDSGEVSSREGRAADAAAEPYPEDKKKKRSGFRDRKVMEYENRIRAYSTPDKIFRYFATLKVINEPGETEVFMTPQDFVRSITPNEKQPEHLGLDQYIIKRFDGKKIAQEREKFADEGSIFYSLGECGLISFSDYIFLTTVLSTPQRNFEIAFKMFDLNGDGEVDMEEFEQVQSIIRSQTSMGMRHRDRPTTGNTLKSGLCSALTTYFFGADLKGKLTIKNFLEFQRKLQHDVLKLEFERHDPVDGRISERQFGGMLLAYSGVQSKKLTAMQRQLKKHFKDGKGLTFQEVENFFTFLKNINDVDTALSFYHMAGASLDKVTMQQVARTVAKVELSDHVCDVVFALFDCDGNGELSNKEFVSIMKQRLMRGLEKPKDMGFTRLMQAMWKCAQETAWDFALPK
# AEA-DA lipid probe targets in Neuro2a cells (Mus musculus, UniProt Q91VM5), sequence (Q91VM5 whole entry): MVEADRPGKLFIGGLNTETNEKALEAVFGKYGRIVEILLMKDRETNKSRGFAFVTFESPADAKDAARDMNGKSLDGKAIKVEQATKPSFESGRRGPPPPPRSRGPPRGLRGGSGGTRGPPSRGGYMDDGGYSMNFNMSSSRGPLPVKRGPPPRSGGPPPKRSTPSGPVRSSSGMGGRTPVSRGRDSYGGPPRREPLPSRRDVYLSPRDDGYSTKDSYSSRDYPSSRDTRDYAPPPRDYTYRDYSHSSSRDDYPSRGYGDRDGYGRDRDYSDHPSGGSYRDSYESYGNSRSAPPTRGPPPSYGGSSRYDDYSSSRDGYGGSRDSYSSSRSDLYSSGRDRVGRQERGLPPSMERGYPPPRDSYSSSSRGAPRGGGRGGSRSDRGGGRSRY
smiles,measurement,setting,value
"CCCCC/C=C\C/C=C\C/C=C\C/C=C\CCCC(=O)NCCO [AEA, anandamide, reference compound]",SILAC ratio (AEA-DA competition),[1]; competitor 200 μM,1.0
"C#CCCCC1(CC/C=C\C/C=C\C/C=C\CCCC(=O)NCCO)N=N1 [AEA-DA, (5Z,8Z,11Z)-N-(2-hydroxyethyl)-14-(3-(pent-4-yn-1-yl)-3H-diazirin-3-yl)tetradeca-5,8,11-trienamide]",Times observed,"[2]; AEA-DA-modified peptide NUCB1 Q02819 53-69, SEQ ID NO 71",11
same,Times observed,"[2]; AEA-DA-modified peptide NUCB1 Q02819 246-275, SEQ ID NO 70",4
"CN1CCN(C(=O)c2[nH]c3ccc([N+](=O)[O-])cc3c2-c2ccccc2)CC1 [MJN228, (4-Methylpiperazin-1-yl)(5-nitro-3-phenyl-1H-indol-2-yl)methanone]",reduction of signals of AEA-DA labeled NUCB1 peptide (aa 53-68),"[2]; Neuro2A cells, AEA-DA 50 μM, MJN228 50 μM",> 5 fold
same,SILAC ratio (AEA-DA competition),[3]; competitor 10 μM,1.2
same,SILAC ratio (AEA-DA competition),[3]; competitor 25 μM,1.5
same,SILAC ratio (AEA-DA competition),[1]; competitor 10 μM,1.1
same,SILAC ratio (AEA-DA competition),[1]; competitor 25 μM,1.2
same,SILAC ratio (AEA-DA competition),[1]; competitor 100 μM,1.3
"C=CCN(C)CCCCCCOc1ccc(C(=O)c2ccc(Br)cc2)c(F)c1 [Ro 48-8071, reference compound]",SILAC ratio (AEA-DA competition),[3]; competitor 25 μM,0.9
